Common to all, as to format: cell-based
One test deals with T1, human TLR7 (Homo sapiens, UniProt Q9NYK1).
T1 construct: host or cells: HEK-Blue cells
T1 sequence (Q9NYK1 27-1049): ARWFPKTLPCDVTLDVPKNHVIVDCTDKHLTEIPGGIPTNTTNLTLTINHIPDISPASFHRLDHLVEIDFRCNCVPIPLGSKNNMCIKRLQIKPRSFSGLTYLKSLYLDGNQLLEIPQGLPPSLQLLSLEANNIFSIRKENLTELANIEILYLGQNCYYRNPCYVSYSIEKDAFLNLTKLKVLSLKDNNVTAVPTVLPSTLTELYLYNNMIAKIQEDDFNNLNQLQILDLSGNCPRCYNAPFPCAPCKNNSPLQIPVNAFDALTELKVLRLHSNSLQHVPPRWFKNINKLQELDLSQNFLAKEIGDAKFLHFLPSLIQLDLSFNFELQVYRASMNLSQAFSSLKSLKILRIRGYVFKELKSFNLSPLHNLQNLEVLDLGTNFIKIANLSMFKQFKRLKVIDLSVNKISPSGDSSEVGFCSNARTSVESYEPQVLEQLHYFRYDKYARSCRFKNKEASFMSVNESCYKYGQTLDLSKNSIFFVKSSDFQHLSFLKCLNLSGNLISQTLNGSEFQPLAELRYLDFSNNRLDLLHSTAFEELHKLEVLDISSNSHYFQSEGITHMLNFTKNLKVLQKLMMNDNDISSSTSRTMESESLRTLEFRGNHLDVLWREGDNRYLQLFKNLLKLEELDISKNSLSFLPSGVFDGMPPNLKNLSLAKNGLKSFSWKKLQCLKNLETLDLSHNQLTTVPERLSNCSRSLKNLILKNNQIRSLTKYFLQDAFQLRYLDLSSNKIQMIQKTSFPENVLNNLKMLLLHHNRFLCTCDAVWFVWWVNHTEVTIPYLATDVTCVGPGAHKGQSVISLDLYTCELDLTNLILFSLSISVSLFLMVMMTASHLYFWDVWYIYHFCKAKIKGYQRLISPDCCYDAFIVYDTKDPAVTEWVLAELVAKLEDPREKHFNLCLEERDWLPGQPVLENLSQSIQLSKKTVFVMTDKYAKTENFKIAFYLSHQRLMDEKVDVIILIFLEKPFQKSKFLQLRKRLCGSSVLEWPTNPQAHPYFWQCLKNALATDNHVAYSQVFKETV
As to the kind of experiment: TLR7 inhibition reporter assay (HEK-Blue cells, SEAP reporter, gardiquimod stimulation). The settings on record: HEK-Blue cells overexpressing human TLR7, SEAP reporter, gardiquimod 7.5 μM; read-out: TLR7 IC50. Summed up: (§1)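 Human TLR7/8/9 HEK-Blue reporter lines; dose range 0.05 nM–50 μM; 30 min RT preincubation; stimulus gardiquimod 7.5 μM / R848 15.9 μM / ODN2006 5 nM respectively; 22 h, 37 °C; SEAP detected colorimetrically.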
A general note: A reporter such as luciferase makes a cellular process visible.

A further test concerns the target T2, human TLR9 (Homo sapiens, UniProt Q9NR96).
T2 construct: host or cells: HEK-Blue cells
T2 sequence (Q9NR96 26-1032): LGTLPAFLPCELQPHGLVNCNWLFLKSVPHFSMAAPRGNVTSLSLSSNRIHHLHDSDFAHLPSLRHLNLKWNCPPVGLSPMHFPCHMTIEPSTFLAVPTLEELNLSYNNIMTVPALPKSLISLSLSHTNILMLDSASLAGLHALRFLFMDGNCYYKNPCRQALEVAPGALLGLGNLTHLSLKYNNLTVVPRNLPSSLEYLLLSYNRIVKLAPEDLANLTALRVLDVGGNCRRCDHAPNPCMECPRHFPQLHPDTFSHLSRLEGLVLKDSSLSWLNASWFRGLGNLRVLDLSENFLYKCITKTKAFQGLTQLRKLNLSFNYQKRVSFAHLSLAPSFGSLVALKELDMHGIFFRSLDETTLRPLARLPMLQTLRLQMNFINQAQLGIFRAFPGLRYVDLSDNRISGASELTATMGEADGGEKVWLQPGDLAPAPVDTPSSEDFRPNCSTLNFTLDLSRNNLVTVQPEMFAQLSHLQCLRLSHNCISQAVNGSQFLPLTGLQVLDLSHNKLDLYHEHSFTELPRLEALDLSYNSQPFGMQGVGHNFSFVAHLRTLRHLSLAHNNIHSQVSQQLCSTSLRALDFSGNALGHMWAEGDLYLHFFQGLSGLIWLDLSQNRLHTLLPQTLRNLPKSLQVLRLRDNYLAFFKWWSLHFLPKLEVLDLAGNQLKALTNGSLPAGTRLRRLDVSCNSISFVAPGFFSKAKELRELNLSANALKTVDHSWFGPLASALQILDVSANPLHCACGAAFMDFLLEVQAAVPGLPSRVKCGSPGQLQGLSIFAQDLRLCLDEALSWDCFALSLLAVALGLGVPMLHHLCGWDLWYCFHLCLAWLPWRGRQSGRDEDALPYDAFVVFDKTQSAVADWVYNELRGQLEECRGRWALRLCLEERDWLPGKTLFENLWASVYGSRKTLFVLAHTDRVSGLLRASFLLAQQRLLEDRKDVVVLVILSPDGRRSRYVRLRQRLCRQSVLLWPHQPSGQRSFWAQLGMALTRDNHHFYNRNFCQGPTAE
As to the kind of experiment: TLR9 inhibition reporter assay (HEK-Blue cells, SEAP reporter, ODN2006 stimulation). The settings on record: HEK-Blue cells overexpressing human TLR9, SEAP reporter, ODN2006 5 nM. Summed up:
as §1

Another test deals with T3, human TLR8 (Homo sapiens, UniProt Q9NR97).
T3 construct: host or cells: HEK-Blue cells
T3 sequence (Q9NR97 27-1041): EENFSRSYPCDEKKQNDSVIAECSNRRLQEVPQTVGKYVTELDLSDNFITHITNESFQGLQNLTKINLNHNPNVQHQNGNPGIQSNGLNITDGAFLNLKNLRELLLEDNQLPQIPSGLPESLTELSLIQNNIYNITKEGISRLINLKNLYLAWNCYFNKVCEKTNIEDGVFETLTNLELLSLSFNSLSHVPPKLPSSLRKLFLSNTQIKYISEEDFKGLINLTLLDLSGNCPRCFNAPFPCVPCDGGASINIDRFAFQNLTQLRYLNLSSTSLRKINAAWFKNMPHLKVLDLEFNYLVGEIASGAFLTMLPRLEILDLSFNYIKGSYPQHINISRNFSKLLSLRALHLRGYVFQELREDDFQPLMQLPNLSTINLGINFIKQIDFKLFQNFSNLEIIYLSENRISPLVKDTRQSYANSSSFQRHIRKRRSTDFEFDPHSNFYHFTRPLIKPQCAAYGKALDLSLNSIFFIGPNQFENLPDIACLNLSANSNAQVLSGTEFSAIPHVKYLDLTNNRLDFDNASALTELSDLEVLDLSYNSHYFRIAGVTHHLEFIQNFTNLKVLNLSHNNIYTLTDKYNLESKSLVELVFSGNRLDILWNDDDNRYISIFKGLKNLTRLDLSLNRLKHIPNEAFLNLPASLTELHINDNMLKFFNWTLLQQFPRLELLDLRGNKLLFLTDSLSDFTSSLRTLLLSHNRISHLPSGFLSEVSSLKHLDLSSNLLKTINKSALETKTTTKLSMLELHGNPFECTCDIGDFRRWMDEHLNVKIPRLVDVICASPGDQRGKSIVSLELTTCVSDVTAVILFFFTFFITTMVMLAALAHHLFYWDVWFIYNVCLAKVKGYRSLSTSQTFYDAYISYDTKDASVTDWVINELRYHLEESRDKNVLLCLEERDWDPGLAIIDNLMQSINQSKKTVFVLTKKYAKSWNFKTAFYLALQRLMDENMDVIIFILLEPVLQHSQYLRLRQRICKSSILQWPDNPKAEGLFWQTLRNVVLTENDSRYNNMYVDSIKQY
Put plainly: TLR8 inhibition reporter assay (HEK-Blue cells, SEAP reporter, R848 stimulation). As to conditions: HEK-Blue cells overexpressing human TLR8, SEAP reporter, R848 15.9 μM; read-out: TLR8 IC50. Summed up:
as §1

The values below come from US20230139171A1 (SITA Information Networking Computing UK Limited, priority 2019, published 2023).

The IC50 is the concentration needed to halve the response being measured.

Molecules are shown by their SMILES.

On to `COc1cc(-c2[nH]c3sc(C4CCC(N(C)CC(=O)N(C)C)CC4)nc3c2C(C)C)cn2ncnc12` (single isomer, unassigned) [Example 162, 2-((4-(6-isopropyl-5-(8-methoxy-[1,2,4]triazolo[1,5-a]pyridin-6-yl)-4H-pyrrolo[3,2-d]thiazol-2-yl)cyclohexyl)(methyl)amino)-N,N-dimethylacetamide], for which the IC50 at human TLR7 stood at 2.6 nM; at human TLR9, 20300 nM; at human TLR8 it was 15.7 nM.

Take `Cc1c(-c2[nH]c3sc(C4CCC(NC(C)C)CC4)nc3c2C(C)C)cn2ncnc2c1C` (single isomer, unassigned) [Example 194, 4-(5-(7,8-dimethyl-[1,2,4]triazolo[1,5-a]pyridin-6-yl)-6-isopropyl-4H-pyrrolo[3,2-d]thiazol-2-yl)-N-isopropylcyclohexan-1-amine]: the IC50 on human TLR7 came out at 0.9 nM; against human TLR9 it was 9220 nM; on human TLR8 it was 0.37 nM.

Turning to `Cc1cc2ncnn2cc1-c1[nH]c2sc(C3CCC(N4CCCC4)CC3)nc2c1C(C)C` (single isomer, unassigned) [Example 154, 6-isopropyl-5-(7-methyl-[1,2,4]triazolo[1,5-a]pyridin-6-yl)-2-(4-(pyrrolidin-1-yl)cyclohexyl)-4H-pyrrolo[3,2-d]thiazole], the half-maximal inhibitory concentration (IC50) at human TLR7 came out at 11.9 nM; at human TLR9, 9310 nM; on human TLR8, 3.33 nM.

In the case of `CNC1CCC(c2nc3c(C(C)C)c(-c4cc(OC)c5ncnn5c4)[nH]c3s2)CC1` (single isomer, unassigned) [Example 74, 4-(6-isopropyl-5-(8-methoxy-[1,2,4]triazolo[1,5-a]pyridin-6-yl)-4H-pyrrolo[3,2-d]thiazol-2-yl)-N-methylcyclohexan-1-amine], the IC50 came to 0.71 nM at human TLR7, 1910 nM against human TLR9 and 3.44 nM at human TLR8.

On to `COc1cc(-c2[nH]c3sc(C4CCC(NC5COC5)CC4)nc3c2C(C)C)cn2ncnc12` (single isomer, unassigned) [Example 66, N-(4-(6-isopropyl-5-(8-methoxy-[1,2,4]triazolo[1,5-a]pyridin-6-yl)-4H-pyrrolo[3,2-d]thiazol-2-yl)cyclohexyl)oxetan-3-amine], for which the IC50 at human TLR7 amounted to 3.59 nM; against human TLR9, 5710 nM; at human TLR8, 16.9 nM.

`Cc1cc(-c2[nH]c3sc(C4CCN(CC(C)(C)O)CC4)nc3c2C(C)C)cn2ncnc12` [Example 18, 1-(4-(6-isopropyl-5-(8-methyl-[1,2,4]triazolo[1,5-a]pyridin-6-yl)-4H-pyrrolo[3,2-d]thiazol-2-yl)piperidin-1-yl)-2-methylpropan-2-ol]: the IC50 is 5.69 nM on human TLR7, 3740 nM against human TLR9 and 2.57 nM on human TLR8.

As for `COC1CN(C2CCC(c3nc4c(C(C)C)c(-c5cn6ncnc6c(C)c5C)[nH]c4s3)CC2)C1` (single isomer, unassigned) [Example 189, 5-(7,8-dimethyl-[1,2,4]triazolo[1,5-a]pyridin-6-yl)-6-isopropyl-2-(4-(3-methoxyazetidin-1-yl)cyclohexyl)-4H-pyrrolo[3,2-d]thiazole], the IC50 on human TLR7 stood at 3.35 nM; against human TLR9, 10000 nM; on human TLR8 it was 5.18 nM.

On to `COc1cc(-c2[nH]c3sc(C4CCN(C5CCOCC5)CC4)nc3c2C(C)C)cn2ncnc12` [Example 12, 6-isopropyl-5-(8-methoxy-[1,2,4]triazolo[1,5-a]pyridin-6-yl)-2-(1-(tetrahydro-2H-pyran-4-yl)piperidin-4-yl)-4H-pyrrolo[3,2-d]thiazole], for which the IC50 was 1.59 nM at human TLR7, 2150 nM against human TLR9 and 0.86 nM at human TLR8.

For the compound `COc1cc(-c2[nH]c3sc(C4CCC(NC56CC(C5)C6)CC4)nc3c2C(C)C)cn2ncnc12` (single isomer, unassigned) [Example 168, N-(4-(6-isopropyl-5-(8-methoxy-[1,2,4]triazolo[1,5-a]pyridin-6-yl)-4H-pyrrolo[3,2-d]thiazol-2-yl)cyclohexyl)bicyclo[1.1.1]pentan-1-amine], the IC50 at human TLR7 was 6.58 nM; against human TLR9, above 50000 nM; at human TLR8, 33.9 nM.
